Results taken from patent US8017612B2, “Piperazine compound and use thereof as a HCV polymerase inhibitor” (priority 2006, dated 2011).

Assays:
[1] = biological target: T1, HCV polymerase (NS5B) type 1b (Hepatitis C virus genotype 1b, UniProt P26663); experiment: Assay of enzyme (HCV polymerase) inhibitory activity, type 1b enzyme; type: biochemical, HCV BK strain (type 1b); settings: HCV polymerase inhibitory activity (IC50), 1b, type 1b enzyme 0.5 μg/ml, 25° C., 60 min
T1 construct: a region encoding NS5B (J Virol 1991 March, 65(3), 1105-13, 544 amino acids after deletion of 47 amino acids on the C-terminal); 6xHis (C); made in house; host or cells: Escherichia coli
Method in brief: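 NS5B from HCV BK strain (type 1b), C-terminal 47 aa deleted, C-terminal His6-tagged, E. coli-expressed, 0.5 μg/ml, with ~450 nt substrate RNA carrying the 3′ UTR (polyU, 3′X) at 5 μg/ml. Incubation 60 min at 25 °C with 50 μM ATP/GTP/CTP, 2 μM UTP plus [3H]UTP, pH 7.5 Tris.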

[2] = biological target: T2, HCV polymerase (NS5B) type 1a (Hepatitis C virus genotype 1a, UniProt P26664); experiment: Assay of enzyme (HCV polymerase) inhibitory activity, type 1a enzyme; type: biochemical, HCV type 1a (cloned from the blood of patients); settings: HCV polymerase inhibitory activity (IC50), 1a, type 1a enzyme 1.5 μg/ml, 25° C., 60 min
T2 construct: made in house; host or cells: Escherichia coli (by the 'similar method' of the 1b enzyme)
Method in brief: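 Patient-derived type 1a NS5B (C-terminal 47-aa deletion, His-tagged, E. coli-expressed) at 1.5 μg/ml was reacted with 5 μg/ml 3′UTR-containing substrate RNA, 50 μM ATP/GTP/CTP, 2 μM UTP plus [3H]UTP, pH 7.5, 25° C for 60 min. TCA-precipitated RNA radioactivity was counted; IC50 from ± compound.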

Compound | IC50 [1] [nM] | IC50 [2] [nM]
CCCc1ccc(CNC(=O)[C@H]2CN(C(=O)Cn3nnnc3C)CCN2S(=O)(=O)c2ccc(OC(F)(F)F)cc2)cc1 [Example 456, (R)-4-[2-(5-methyl-tetrazol-1-yl)-acetyl]-1-(4-trifluoromethoxy-benzenesulfonyl)-piperazine-2-carboxylic acid 4-propyl-benzylamide] | < 100 | < 100
CCCc1ccc(CNC(=O)[C@H]2CN(C(=O)Cn3nnc(C)n3)CCN2S(=O)(=O)c2ccc(OC(F)(F)F)cc2)cc1 [Example 457, (R)-4-[2-(5-methyl-tetrazol-2-yl)-acetyl]-1-(4-trifluoromethoxy-benzenesulfonyl)-piperazine-2-carboxylic acid 4-propyl-benzylamide] | < 100 | < 100
CCCc1ccc(CNC(=O)[C@H]2CN(c3ccc(N)cn3)CCN2S(=O)(=O)c2ccc(OC(F)(F)F)cc2)cc1 [Example 458, (R)-4-(5-amino-pyridin-2-yl)-1-(4-trifluoromethoxy-benzenesulfonyl)-piperazine-2-carboxylic acid 4-propyl-benzylamide] | < 100 | < 100
CCC(F)(F)c1ccc(CNC(=O)[C@H]2CN(C(C)=O)CCN2S(=O)(=O)c2ccc(OC(F)(F)F)cc2)cc1 [Example 459, (R)-4-acetyl-1-(4-trifluoromethoxy-benzenesulfonyl)-piperazine-2-carboxylic acid 4-(1,1-difluoro-propyl)-benzylamide] | < 100 | < 100
CCCc1ccc(CNC(=O)[C@H]2CN(C(=O)Cn3ncnn3)CCN2S(=O)(=O)c2ccc(OC(F)(F)F)cc2)cc1 [Example 460, (R)-4-(2-tetrazol-2-yl-acetyl)-1-(4-trifluoromethoxy-benzenesulfonyl)-piperazine-2-carboxylic acid 4-propyl-benzylamide] | < 100 | < 100
CCCc1ccc(CNC(=O)[C@H]2CN(C(=O)Cn3cnnn3)CCN2S(=O)(=O)c2ccc(OC(F)(F)F)cc2)cc1 [Example 461, (R)-4-(2-tetrazol-1-yl-acetyl)-1-(4-trifluoromethoxy-benzenesulfonyl)-piperazine-2-carboxylic acid 4-propyl-benzylamide] | < 100 | < 100
CCCc1ccc(CNC(=O)[C@H]2CN(C(=O)Cn3ccnc3)CCN2S(=O)(=O)c2ccc(OC(F)(F)F)cc2)cc1 [Example 462, (R)-4-(2-imidazol-1-yl-acetyl)-1-(4-trifluoromethoxy-benzenesulfonyl)-piperazine-2-carboxylic acid 4-propyl-benzylamide] | < 100 | < 100
CCCc1ccc(CNC(=O)[C@H]2CN(C(=O)N(C)c3ccncc3)CCN2S(=O)(=O)c2ccc(OC(F)(F)F)cc2)cc1 [Example 463, (R)-4-(4-trifluoromethoxy-benzenesulfonyl)-piperazine-1,3-dicarboxylic acid 1-(methyl-pyridin-4-yl-amide) 3-(4-propyl-benzylamide)] | > 1000 | > 1000
CCC(F)(F)c1ccc(CNC(=O)[C@H]2CN(C(=O)Cn3cnnn3)CCN2S(=O)(=O)c2ccc(OC(F)(F)F)cc2)cc1 [Example 464, (R)-4-(2-tetrazol-1-yl-acetyl)-1-(4-trifluoromethoxy-benzenesulfonyl)-piperazine-2-carboxylic acid 4-(1,1-difluoro-propyl)-benzylamide] | < 100 | < 100
CCCc1ccc(CNC(=O)[C@H]2CN(C(=O)Cn3nnc(CC(=O)O)n3)CCN2S(=O)(=O)c2ccc(OC(F)(F)F)cc2)cc1 [Example 465, (2-{2-oxo-2-[(R)-3-(4-propyl-benzylcarbamoyl)-4-(4-trifluoromethoxy-benzenesulfonyl)-piperazin-1-yl]-ethyl}-2H-tetrazol-5-yl)-acetic acid] | < 100 | < 100
CCOC(=O)Cc1nnn(CC(=O)N2CCN(S(=O)(=O)c3ccc(OC(F)(F)F)cc3)[C@@H](C(=O)NCc3ccc(C(F)(F)CC)cc3)C2)n1 [Example 466, (2-{2-[(R)-3-[4-(1,1-difluoro-propyl)-benzylcarbamoyl]-4-(4-trifluoromethoxy-benzenesulfonyl)-piperazin-1-yl]-2-oxo-ethyl}-2H-tetrazol-5-yl)-acetic acid ethyl ester] | < 100 | < 100
CCC(F)(F)c1ccc(CNC(=O)[C@H]2CN(C(=O)Cn3nnnc3C)CCN2S(=O)(=O)c2ccc(OC(F)(F)F)cc2)cc1 [Example 467, (R)-4-[2-(5-methyl-tetrazol-1-yl)-acetyl]-1-(4-trifluoromethoxy-benzenesulfonyl)-piperazine-2-carboxylic acid 4-(1,1-difluoro-propyl)-benzylamide] | 100 to 1000 | < 100
CCC(F)(F)c1ccc(CNC(=O)[C@H]2CN(C(=O)Cn3nnc(C)n3)CCN2S(=O)(=O)c2ccc(OC(F)(F)F)cc2)cc1 [Example 468, (R)-4-[2-(5-methyl-tetrazol-2-yl)-acetyl]-1-(4-trifluoromethoxy-benzenesulfonyl)-piperazine-2-carboxylic acid 4-(1,1-difluoro-propyl)-benzylamide] | < 100 | < 100
CC(=O)N1CCN(S(=O)(=O)c2ccc(Br)c(F)c2)[C@@H](C(=O)NCc2ccc(C(C)C)cc2)C1 [Example 469, (R)-4-acetyl-1-(4-bromo-3-fluoro-benzenesulfonyl)-piperazine-2-carboxylic acid 4-isopropyl-benzylamide] | 100 to 1000 | 100 to 1000
CCCc1ccc(CNC(=O)[C@H]2CN(C(=O)Nc3nc(CC(=O)OCC)cs3)CCN2S(=O)(=O)c2ccc(OC(F)(F)F)cc2)cc1 [Example 470, (2-{[(R)-3-(4-propyl-benzylcarbamoyl)-4-(4-trifluoromethoxy-benzenesulfonyl)-piperazine-1-carbonyl]-amino}-thiazol-4-yl)-acetic acid ethyl ester] | 100 to 1000 | 100 to 1000
CC(C)c1ccc(CNC(=O)[C@H]2CN(c3cnc(N)cn3)CCN2S(=O)(=O)c2ccc(C(F)(F)F)cc2)cc1 [Example 471, (R)-5′-amino-4-(4-trifluoromethyl-benzenesulfonyl)-3,4,5,6-tetrahydro-2H-[1,2′]bipyrazinyl-3-carboxylic acid 4-isopropyl-benzylamide] | < 100 | 100 to 1000
CCCc1ccc(CNC(=O)[C@H]2CN(c3cnccn3)CCN2S(=O)(=O)c2ccc(OC(F)(F)F)cc2)cc1 [Example 472, (R)-4-(4-trifluoromethoxy-benzenesulfonyl)-3,4,5,6-tetrahydro-2H-[1,2′]bipyrazinyl-3-carboxylic acid 4-propyl-benzylamide] | < 100 | < 100
COCc1ccc(CNC(=O)[C@H]2CN(c3cnc(C(=O)O)cn3)CCN2S(=O)(=O)c2ccc(OC(F)(F)F)cc2)cc1 [Example 473, (R)-3-(4-methoxymethyl-benzylcarbamoyl)-4-(4-trifluoromethoxy-benzenesulfonyl)-3,4,5,6-tetrahydro-2H-[1,2′]bipyrazinyl-5′-carboxylic acid] | < 100 | < 100
CCCc1ccc(CNC(=O)[C@H]2CN(c3cnc(C(=O)O)cn3)CCN2S(=O)(=O)c2ccc(OC(F)(F)F)cc2)c(Cl)c1 [Example 474, (R)-3-(2-chloro-4-propyl-benzylcarbamoyl)-4-(4-trifluoromethoxy-benzenesulfonyl)-3,4,5,6-tetrahydro-2H-[1,2′]bipyrazinyl-5′-carboxylic acid] | < 100 | < 100
